In patent publication US11726088B2, “Sirtuin 4 (SIRT4) lipoamidase activity and uses thereof” (THE TRUSTEES OF PRINCETON UNIVERSITY, priority 2014, dated 2023):
Peptide text beside a SMILES is read from it.

Legend:
[1] = test system: PDH; assay: PDH activity assay (immunocapture colorimetric) in fibroblasts stimulated with glutamax; type: cell-based, human; conditions: WT fibroblasts, glutamax 4 mM, versus unstimulated cells
Method: PDH activity assay. The activity of the PDHC in MRC5 derivate cell lines was measured using the Pyruvate Dehydrogenase Enzyme Activity Microplate Assay Kit (Abcam, cat. #ab109902) according to manufacturer's instructions. 1000 μg/well of cultured cell extract from each line being tested was used as input for PDHC binding, and 5 μg/well of pyruvate dehydrogenase from porcine heart (Sigma-Aldrich, cat. #P7032) used as a positive control for the assay. PDH activity was measured by reduction of NAD+ to NADH, coupled to the reduction of a reporter dye to yield a colored reaction product with an increase in absorbance at 450 nm at room temperature. […] Statistical significance was assessed by one-way ANOVA in GraphPad Prism 5. […]
We next investigated a cellular condition known to inhibit PDH activity, and examined the involvement of SIRT4 in this process. […] In agreement with these observations, we detected elevated expression of endogenous SIRT4 in cells stimulated with glutamax (FIG. 3J). To validate the dependence of PDH inhibition on SIRT4 activity, we first measured PDH activity in SIRT4 OE cells stimulated with glutamax. […] It remains to be determined whether residual SIRT4 still functions in these knocked-down lines to decrease PDH activity following glutamax stimulation, or another yet to be identified PDH inhibition mechanism is at play. […]

[2] = test system: DLAT lipoyl (K132 and K259); assay: DLAT lipoyl levels by PRM quantification in glutamax-stimulated cells; type: cell-based, human; conditions: glutamax stimulation, within 48 hr
Method: Lipoyl-lysine SRM assay. The relative abundance of lipoyl-lysine-containing peptides identified from immunoisolated, in-gel digested DLAT (described above) was measured in mitochondria lysates using a selected reaction monitoring (SRM) full-scan tandem mass spectrometry assay. Purified mitochondria were isolated from MRC5 stable cell lines expressing EGFP, SIRT4-EGFP, and SIRT4-targeting shRNA (described above). Mitochondria pellets were lysed by agitation and bath sonication in 100 μL of hot (95° C.) buffer containing 0.1 M ammonium bicarbonate, 5 mM tris(2-carboxyethyl)phosphine, 1 mM nicotinamide, and 0.1% RapiGest. Protein concentration was determined using the Bradford reagent (Sigma). […] Eluates from the same sample were pooled and concentrated to near-dryness, diluted to 8 μL, and half were analyzed by an LC-SRM-MS/MS assay on an LTQ Orbitrap Velos mass spectrometry (Thermofisher Scientific). […] At least four co-eluting XICs (dot-product score of ≥0.95) were used for peak area quantification. […] Peak areas were summed across XICs, exported to Excel, and normalized across biological replicates (n=3-6) using the average chromatographic precursor intensity calculated by RawMeat (Vast Scientific, Inc). Statistical significance was determined by unpaired, two-tailed t-tests in Microsoft Excel. […]

C[C@H](N)C(=O)N[C@@H](CCC(N)=O)C(=O)O [glutamax] (H-Ala-Gln-OH)
PDH activity [1]: significant time-dependent decrease
DLAT lipoyl levels [2]: decrease
